Experimental data from ChEMBL document CHEMBL1127394, “Inhibition of topoisomerase II catalytic activity by pyridoacridine alkaloids from a Cystodytes sp. ascidian: a mechanism for the apparent intercalator-induced inhibition of topoisomerase II” (J Med Chem, 1994).

What was measured:
[1] = Differential cytotoxicity was determined from the ratio between BR1(IC50) and xrs-6 (IC50); type: functional
[2] = Tested for the cytotoxicity against the repair deficient xrs-6 chinese hamster ovary cell line; type: functional, cell-based; conditions: Cricetulus griseus
HCT-116 = assay: Tested for the cytotoxicity to inhibit replication assay against the human colon tumor cell line HCT116; type: functional, cell-based
[3] = Concentration required to reduce ethidium bromide fluorescence to 50% of control in presence of calf thymus DNA
[4] = molecular target: DNA topoisomerase II (Homo sapiens) (UniProt P11388+Q02880); assay: Effect of dose dependent inhibition of TOPO II-catalyzed kDNA decatenation in vitro; conditions: Crithidia fasciculata

| SMILES | Ratio [1] | IC50 [2] | IC50 (HCT-116) | Concentration for 50% ethidium displacement (C50) [3] | IC90 [4] |
| --- | --- | --- | --- | --- | --- |
| CC(C)=CC(=O)NCCc1c2c3c(ccnc3c3ncsc13)-c1ccccc1N2 | 1 | 80 µM | 8.3 µM | > 100 µM |  |
| CC(C)=CC(=O)NCCc1c2c(c3nccc4c3c1Nc1ccccc1-4)NC(=O)CS2 | 1 | 8.1 µM | 16.3 µM | > 100 µM |  |
| CC(=O)NCCC1=CC(=O)c2nccc3c2c1nc1ccccc13 | 1 | 136 µM | 1.6 µM | 54 µM | 8.4 µM |
| COc1cc(NS(C)(=O)=O)ccc1Nc1c2ccccc2nc2ccccc12 [AMSACRINE] | 4 | 0.24 µM | 6.3 µM |  | 33 µM |
| CSC1=C(CCNC(C)=O)c2nc3ccccc3c3ccnc(c23)C1=O [DIPLAMINE] | 1 | 71.2 µM | < 1.4 µM | 21 µM | 9.2 µM |
| c1ccc2c(c1)nc1c3nc4ccccc4c4ccnc(c5nccc2c51)c43 [EILATIN] |  |  | 5.3 µM | > 100 µM |  |
| COc1cc([C@@H]2c3cc4c(cc3[C@@H](O[C@@H]3O[C@@H]5CO[C@@H](C)O[C@H]5[C@H](O)[C@H]3O)[C@H]3COC(=O)[C@H]23)OCO4)cc(OC)c1O [ETOPOSIDE] | 7 | 0.14 µM | 2.5 µM |  | 68 µM |
| CC(=O)NCCc1c2c3c(ccnc3c3ncsc13)-c1ccccc1N2 [KUANONIAMINE D] | 2 | 88.9 µM | 7.8 µM | 62 µM |  |
| O=C1c2c(O)ccc(O)c2C(=O)c2c(NCCNCCO)ccc(NCCNCCO)c21 [MITOXANTRONE] | 9 | 0.001 µM |  |  |  |
| CC(=O)NCCc1c2c(c3nccc4c3c1Nc1ccccc1-4)NC(=O)CS2 [SHERMILAMINE B] | 1 | 14.9 µM | 13.8 µM | > 100 µM |  |
